Experimental data taken from US20230364079A1, “COMPOUND AS BRAIN-PERMEABLE BTK OR HER2 INHIBITOR, PREPARATION METHOD THEREFOR, AND USE THEREOF” (CHENGDU HYPERWAY PHARMACEUTICALS CO., LTD., priority 2020, published 2023).

Assays:
[1] = Pharmacokinetic test, oral, SD rats; format: in vivo; conditions: oral 10 mg/kg, plasma; for AUC(0-inf) / Cmax / half-life: rat; for Cmax: read-out: Cmax; for half-life: read-out: T½ (converted)
In short: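 Male/female status unstated; SD rats (3 per group) dosed orally at 10 mg/kg after overnight fast, refed 4 h post-dose. Plasma from serial blood draws stored at -20° C, protein-precipitated with internal standard solution and quantified by LC-MS/MS.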

[2] = biological target: BTK mutation-type C481S kinase (Homo sapiens (Human), UniProt Q06187, C481S); assay: BTK-C481S kinase activity inhibition test in vitro (Caliper EZ Reader); format: biochemical
Chain of BTK mutation-type C481S kinase (Q06187 whole entry C481S): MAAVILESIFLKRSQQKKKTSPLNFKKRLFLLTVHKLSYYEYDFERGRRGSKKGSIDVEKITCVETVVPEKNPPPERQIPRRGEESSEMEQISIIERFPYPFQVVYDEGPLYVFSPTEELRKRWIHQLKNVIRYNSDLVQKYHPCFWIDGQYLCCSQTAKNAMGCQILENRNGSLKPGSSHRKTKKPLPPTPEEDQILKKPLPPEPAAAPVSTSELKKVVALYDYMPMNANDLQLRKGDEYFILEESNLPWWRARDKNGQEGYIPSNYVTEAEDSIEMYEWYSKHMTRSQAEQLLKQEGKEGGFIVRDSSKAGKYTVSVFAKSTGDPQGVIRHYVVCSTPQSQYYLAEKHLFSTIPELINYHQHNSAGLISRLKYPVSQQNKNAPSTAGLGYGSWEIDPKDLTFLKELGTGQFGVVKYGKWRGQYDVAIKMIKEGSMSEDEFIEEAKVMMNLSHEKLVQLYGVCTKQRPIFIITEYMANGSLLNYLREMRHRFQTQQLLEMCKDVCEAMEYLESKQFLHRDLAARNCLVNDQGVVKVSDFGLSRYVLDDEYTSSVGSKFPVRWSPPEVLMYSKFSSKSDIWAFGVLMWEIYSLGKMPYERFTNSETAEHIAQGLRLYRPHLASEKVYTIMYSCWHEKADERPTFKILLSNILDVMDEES
Description: In the tests on the activity of inhibiting BTK and HER2 kinase in vitro in the examples of the present disclosure, powder of the compound was dissolved in 100% DMSO to prepare a 10 mM stock solution and stored at-20° C. in the dark. […] In addition, the compounds were subjected to experiments such as liver microsome metabolic stability, rat PK, rat brain penetration rate, and drug efficacy model in the examples of the present disclosure.
Compound powders were dissolved in 100% DMSO to make 10 mM stock solutions, which were stored at -20° C. in the dark.
2: Kinase Reaction Process
(1) Preparation of 1 × Kinase buffer.
(5) After centrifugation at 1000 rpm for 30 seconds, the reaction plate was shaken to mix well and incubated at room temperature for 10 min.
(6) A 5/3-fold final concentration of a mixed solution of ATP and Kinase substrate 2 was prepared with 1 × Kinase buffer.
(7) 15 µL of the mixed solution of ATP and substrate with 5/3-fold final concentration was added to start the reaction.
(8) The 384-well plate was centrifuged at 1000 rpm for 30 seconds, shaken to mix well, and incubated at room temperature for 10 min.
(9) 30 µL of a stop solution was added to stop the kinase reaction, and after centrifugation at 1000 rpm for 30 seconds, the plate was shaken to mix well;
(10) The conversion rate was read with Caliper EZ Reader.
where Conversion%_sample indicates the conversion rate reading of the sample; Conversion%_min is the average reading of the negative control wells, representing the conversion rate reading of the wells without enzyme activity; Conversion%_max is the average reading of the ratio of the positive control wells, representing the conversion rate reading of the wells without compound inhibition.
Dose-Response Curve Fitting
With the log value of the concentration as the X-axis, and the percentage inhibition rate as the Y-axis, the dose-effect curve was fitted using the log(inhibitor) vs. response-Variable slope of the analysis software GraphPad Prism 5, so as to determine the IC50 value of each compound on the enzyme activity.
The calculation formula was: […]

[3] = Liver microsome metabolic stability test, human; format: in vitro ADME; conditions: for half-life: liver microsomes, 0.5 mg/mL protein, read-out: T½
Description: (§1) 1: To the sample wells of T0, T5, T10, T20, T30, T60 and NCF60, 10 µL of the test or reference working solution and 80 µL of microsome working solution (hepatic microsome with a protein concentration of 0.5 mg/mL) were added, and to Blank60 well, only the microsome working solution was added. Then samples of the Blank60, T5, T10, T20, T30 and T60 other than T0 and NCF60 were placed in a 37° C. water bath and pre-incubated for about 10 min.
(§2) 2: To the T0 sample well, 300 µL of stop solution (containing 200 ng/mL tolbutamide and 200 ng/mL labetalol in acetonitrile solution) was added first, followed by 10 µL of NADPH regeneration system working solution.
(§3) 3: After the pre-incubation of Blank60, T5, T10, T20, T30 and T60 incubation plates, 10 µL of NADPH regeneration system working solution was added to each sample well to start the reaction, and 10 µL of 100 mM potassium phosphate buffer was added to the NCF60 sample well.
(§4) 4: After incubation for an appropriate time (such as 5, 10, 20, 30 and 60 min), to each test sample well and control well of the Blank60, T5, T10, T20, T30, T60 and NCF60 plates, 300 µL of stop solution was added to terminate the reaction.
(§5) 5: All sample plates were shaken to mix well and centrifuged at 4000 rpm for 20 min, and 100 µL of the supernatant of the test sample or control sample was taken and diluted with 300 µL of pure water for LC-MS/MS analysis.
(§6) 6: Data analysis: T½ and CLint(mic) (µL/min/mg) values were calculated according to the first-order elimination kinetics. The first-order elimination kinetics equation was: […]

[4] = Liver microsome metabolic stability test, rat; format: in vitro ADME; conditions: for half-life: liver microsomes, 0.5 mg/mL protein, read-out: T½
Description: as §1, §2, §3, §4, §5, §6

[5] = biological target: BTK wild-type kinase (Homo sapiens (Human), UniProt Q06187); assay: BTK kinase activity inhibition test in vitro (Caliper EZ Reader); format: biochemical
Chain of BTK wild-type kinase (Q06187 whole entry): as the sequence (Q06187 whole entry C481S) above, with S481C counted along it
In short: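 Compound (10 mM DMSO stock) preincubated with kinase 10 min at room temperature, then ATP plus kinase substrate 2 added, 10 min reaction at room temperature before stop. Substrate conversion read by Caliper mobility shift; inhibition normalised to no-enzyme and no-compound controls, IC50 by variable-slope log(inhibitor) fit.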

[6] = test system: TMD8 mouse subcutaneous xenograft tumor; assay: TMD8 pharmacodynamic model test (mouse subcutaneous xenograft tumor); format: in vivo
Description: Test Example 7: TMD8 Pharmacodynamic Model Test
Human diffuse large B-cell lymphoma TMD8 cells were monolayer-cultured in vitro in RPMI1640 medium with 10% fetal bovine serum, 100 U/mL penicillin and 100 µg/mL streptomycin, in a 37° C., 5% CO2 incubator. Routine digestion with trypsin-EDTA was performed twice a week for passaging. When the cell density was 80%-90% and the number reached the requirement, cells were harvested, counted and inoculated. 0.2 ml (1×10^7 cells) of TMD8 cells (added with matrigel at a volume ratio of 1:1) were subcutaneously inoculated on the right back of each mouse. The mice were administered in groups when the average tumor volume reached about 137 mm^3. Tumor diameters were measured twice a week with vernier calipers. The tumor volume was calculated by the formula V = 0.5 a × b^2, where a and b represent the long and short diameters of the tumor, respectively.

[7] = test system: DOHH-2-luc tumor cells in the mouse brain; assay: DOHH-2-Luc intracerebral tumor drug efficacy model test; format: in vivo
Description: Test Example 8: DOHH-2-Luc Intracerebral Tumor Drug Efficacy Model Test
DOHH-2-luc tumor cells were cultured in vitro with RPMI 1640 medium containing 10% fetal bovine serum and 500 ng/mL puromycin in a 37° C., 5% CO2 incubator. […] Tumor cells in logarithmic growth phase were used for inoculation of tumors in vivo.
2. Inoculation of Tumor Cell and Grouping
After the animal was anesthetized by intramuscular injection of Zoletil, it was fixed on the operating table in a prone position. The skin on the top of the head was disinfected with iodine and 75% alcohol respectively, and the skin was cut about 0.5 cm along the midline of the head to expose the coronal and sagittal lines. Being located about 0.5-1.0 mm above the coronal line and about 2 mm to the right of the sagittal line by using a brain locator, a hole was drilled with a 1 mL syringe needle. The micro-injector was inserted vertically to a depth of 3 mm at the location, slowly (about 1 min) injected with 3 × 10^5 DOHH-2-luc tumor cells /2 µL suspension and kept for 1 min. After pulling out the needle, the needle hole was quickly sealed with bone wax, and the wound was sutured with a stapler. About the 7th day after tumor inoculation, the animals were randomly divided into 5 groups according to the body weight of the animals and the optical signal intensity of the tumor site, with 5 animals in each group.
The mice were imaged 1-2 times a week according to their state using the small animal in vivo imaging system IVIS Lumina III (Perkin Elmer). The bioluminescence imaging (BLI, unit: photons/s) signal intensity at the tumor cell inoculation site of mouse was monitored as the main indicator for evaluating tumor growth and drug efficacy. The specific operation is as follows:
The mice were intraperitoneally injected with D-luciferin (15 mg/mL, 5 µL/g according to the body weight of the experimental animal), and then inhaled anesthetized with 1%-2% isoflurane. 10 min after the injection of D-luciferin, the animals were imaged with IVIS Lumina III. The data were analyzed and processed using Living Image software (Perkin Elmer), and the optical signal intensity in ROI (regions of interest) of each animal was calculated.

[8] = mice; cited from earlier work

Row | Cl [1] [mL/min/kg] | AUC(0-inf) [1] [ng·h/mL] | Cmax [1] [ng/mL] | half-life [1] [h] | IC50 [2] [nM] | %Remaining (60 min) [3] [%] | half-life [3] [h] | %Remaining (60 min) [4] [%] | half-life [4] [h] | IC50 [5] [nM] | Compound | inhibitory effect against the tumor compared with ARQ-531 and ibrutinib ([6]; same dose of 10 mg/kg, FIG. 1) | inhibitory effect against the tumor compared with Tirabrutinib ([7]; DOHH2 tumor model in the mouse brain, same dose of 30 mg/kg (BID), FIG. 3) | tumor size in the brain by fluorescence image ([7]; DOHH-2-Luc intracerebral model, same dose, FIG. 4) | side effects ([7]; mouse, 30 mg/kg (BID), after 21 days of administration) | inhibitory effect against the tumor compared with Tirabrutinib ([6]; same dose of 20 mg/kg, FIG. 2) | brain permeability rate [8]
1 | 0.8 | 211000 | 25700 | 3.35 | < 5 | 77.4 | > 2.42 | 64.1 | 1.69 | < 5 | Nc1nccn2c(C34CCC(CO)(CC3)OC4)nc(-c3ccc(C(=O)Nc4cc(C(F)(F)F)ccn4)cc3)c12 [Compound 118] | significantly better inhibitory effect against the tumor |  |  |  |  | 
2 | 17.42 | 8860 | 1180 | 4.19 | < 5 | 61.2 | 1.58 | 49 | 1.06 | 5 to 20 | Nc1nccn2c(C34CCC(CO)(CC3)OC4)nc(-c3ccc(C(F)(F)c4ccccc4)cc3)c12 [Compound 125] |  | significantly better inhibitory effect against the tumor | very good inhibitory effect against the tumor | no side effects | significantly better inhibitory effect against the tumor | 
3 | 161.3 | 2270 | 445 | 1.72 |  | 28.8 | 0.53 | 38.2 | 0.663 |  | Cc1cc(Nc2ncnc3ccc(NC4=NC(C)(C)CO4)cc23)ccc1Oc1ccn2ncnc2c1 [Tucatinib, reference compound] |  |  |  |  |  | less than 5%
